Reference: patent US11491460B2, “Porous cyclodextrin polymeric materials and methods of making and using same” (Cornell University, priority 2015, dated 2022)
Structures can show the parent of a compound that is named as a salt.

Tests used:
[1] = Micropollutant adsorption kinetics experiments on P-CDP; conditions: P-CDP 10 mg/L, MP 1 μg/L
[2] = Micropollutant adsorption kinetics experiments on CCAC; conditions: CCAC 10 mg/L, MP 1 μg/L
[3] = Batch adsorption kinetic studies of organic pollutants on P-CDP; conditions: estimated from the equilibrium efficiency value from the batch kinetic studies
[4] = Langmuir parameters of pollutant adsorption on P-CDP (Table 6); assay type: binding
Source text: H. Thermodynamic studies of adsorption.
K (mol^−1) is the equilibrium constant.

[5] = test system: fish populations; conditions: concentrations as low as; cited from earlier work
[6] = cited from earlier work; for Cs, solubility in water: experimental values
[7] = 23° C., estimated at t=30 minutes

Row | Compound | removal by P-CDP (in words) [1] | removal by CCAC (in words) [2] | further results
1 | O=C(O)COc1ccc(Cl)cc1Cl [2,4-D] | hardly removed | removed fairly well | kobs [1, 7]: 72.9 g/mg/min; kobs [2, 7]: 11.0 g/mg/min
2 | Oc1ccc2ccccc2c1 [2-NO, 2-naphthol] | – | – | K, equilibrium constant [3]: ~30,000^c Mol^−1
3 | CC(C)(c1ccc(O)cc1)c1ccc(O)cc1 [BPA, Bisphenol A] | – | – | BPA/β-CD molar ratio at qmax,e [4]: 0.9; K, equilibrium constant ([4]; Langmuir): 56,500 Mol^−1; qmax,e, maximum adsorption capacity of pollutant on 1 g P-CDP at equilibrium ([4]; Langmuir): 88.5 mg/g
4 | O=S(=O)(c1ccc(O)cc1)c1ccc(O)cc1 [BPS, bisphenol S] | – | – | K, equilibrium constant [3]: ~17,000^c Mol^−1
5 | Oc1ccc(Cl)cc1Cl [DCP, 2,4-dichlorophenol] | – | – | K, equilibrium constant [3]: ~17,000^c Mol^−1
6 | CC(C)(C)NCC(O)c1ccc(O)c(CO)c1 (stereo not shown) [albuterol] | removed well | not effectively removed | –
7 | CC(N)Cc1ccccc1 (stereo not shown) [amphetamine] | removed well | not effectively removed | –
8 | CC(C)NCC(O)COc1ccc(CC(=O)O)cc1 (stereo not shown) [atenolol acid] | removed well | not effectively removed | –
9 | CC(C)NCC(O)COc1ccc(CC(N)=O)cc1 (stereo not shown) [atenolol] | removed well | not effectively removed | –
10 | COc1ccc2c3c1O[C@H]1[C@@H](O)C=C[C@H]4[C@@H](C2)N(C)CC[C@@]341 [codeine] | removed well | not effectively removed | –
11 | C#C[C@]1(O)CC[C@H]2[C@@H]3CCc4cc(O)ccc4[C@H]3CC[C@@]21C [ethinyl estradiol] | – | – | concentration that has caused the collapse of fish populations [5]: 5 ng/L; pKa [6]: 10.4; Cs, solubility in water [6]: 0.002 g/L
12 | COc1ccc2c3c1O[C@H]1C(=O)CC[C@H]4[C@@H](C2)N(C)CC[C@]314 [hydrocodone] | removed well | not effectively removed | –
13 | CCc1cccc(C)c1N(C(=O)CCl)C(C)COC (stereo not shown) [metolachlor] | – | – | K, equilibrium constant [3]: ~35,000^c Mol^−1
14 | CN1CC[C@]23c4c5ccc(O)c4O[C@H]2[C@@H](O)C=C[C@H]3[C@H]1C5 [morphine] | removed well | not effectively removed | –
15 | CC(C)NCC(O)COc1cccc2ccccc12 (stereo not shown) [propranolol hydrochloride] | – | – | K, equilibrium constant [3]: ~72,000^c Mol^−1
16 | CC(C)NCC(O)COc1cccc2ccccc12 (stereo not shown) [propranolol] | – | – | Cs, solubility in water [6]: 0.050 g/L
17 | COc1cccc(C2(O)CCCCC2CN(C)C)c1 (stereo not shown) [tramadol] | removed well | not effectively removed | –
18 | COc1ccc(C(CN(C)C)C2(O)CCCCC2)cc1 (stereo not shown) [venlafaxine] | removed well | not effectively removed | –
